# Reference: US11840686B2, “Modulation of prekallikrein (PKK) expression” (Ionis Pharmaceuticals, Inc., priority 2013, dated 2023)
# Strand notation (5' to 3'): a small letter for the sugar, then the base; units joined by * are phosphorothioate-linked, units joined directly phosphodiester-linked; [ ] holds rarer units or linkages, { } end groups; capitals alone tell only the bases. e = 2'-O-(2-methoxyethyl) (MOE); [5mC] = 5-methylcytosine; d = 2'-deoxy (DNA)
# System: human PKK mRNA
# Assay: Antisense inhibition of human PKK mRNA in HepaRG cells, 5,000 nM (Example 2)
# Format: cell-based
# Conditions: Table 13; human PKK mRNA in HepaRG cells; 5-10-5 gapmers
# Method in brief: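 Percent inhibition of PKK mRNA is reported relative to untreated cells, after adjustment for total RNA by RIBOGREEN. Gapmers of 16–20 nucleosides with 2′-MOE wings were delivered at 5,000 nM by electroporation into HepaRG cells and left for roughly 24 hours before RNA isolation.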
row,Substance,% inhibition [%]
1,546831 (eT*e[5mC]*eT*eA*eA*d[5mC]*dA*dG*dT*dA*dT*d[5mC]*dA*d[5mC]*dT*eG*eT*eA*e[5mC]*eT; antisense) [compound 546831],79
2,546836 (eA*eT*eA*eA*e[5mC]*dT*d[5mC]*dT*dA*dA*d[5mC]*dA*dG*dT*dA*eT*e[5mC]*eA*e[5mC]*eT; antisense) [compound 546836],30
3,546837 (eT*eA*eT*eA*eA*d[5mC]*dT*d[5mC]*dT*dA*dA*d[5mC]*dA*dG*dT*eA*eT*e[5mC]*eA*e[5mC]; antisense) [compound 546837],0
4,546838 (e[5mC]*eT*eA*eT*eA*dA*d[5mC]*dT*d[5mC]*dT*dA*dA*d[5mC]*dA*dG*eT*eA*eT*e[5mC]*eA; antisense) [compound 546838],43
5,546839 (e[5mC]*e[5mC]*eT*eA*eT*dA*dA*d[5mC]*dT*d[5mC]*dT*dA*dA*d[5mC]*dA*eG*eT*eA*eT*e[5mC]; antisense) [compound 546839],47
6,546840 (e[5mC]*eT*eG*eT*e[5mC]*d[5mC]*dT*dA*dT*dA*dA*d[5mC]*dT*d[5mC]*dT*eA*eA*e[5mC]*eA*eG; antisense) [compound 546840],53
7,546841 (e[5mC]*eA*e[5mC]*eT*eG*dT*d[5mC]*d[5mC]*dT*dA*dT*dA*dA*d[5mC]*dT*e[5mC]*eT*eA*eA*e[5mC]; antisense) [compound 546841],38
8,546842 (eT*e[5mC]*eA*e[5mC]*eT*dG*dT*d[5mC]*d[5mC]*dT*dA*dT*dA*dA*d[5mC]*eT*e[5mC]*eT*eA*eA; antisense) [compound 546842],54
9,546843 (eT*eA*eT*e[5mC]*eA*d[5mC]*dT*dG*dT*d[5mC]*d[5mC]*dT*dA*dT*dA*eA*e[5mC]*eT*e[5mC]*eT; antisense) [compound 546843],52
10,546844 (eG*eT*e[5mC]*e[5mC]*eT*dA*dT*dA*dT*d[5mC]*dA*d[5mC]*dT*dG*dT*e[5mC]*e[5mC]*eT*eA*eT; antisense) [compound 546844],75
11,546845 (eT*eG*eT*e[5mC]*e[5mC]*dT*dA*dT*dA*dT*d[5mC]*dA*d[5mC]*dT*dG*eT*e[5mC]*e[5mC]*eT*eA; antisense) [compound 546845],75

# Same assay, conditions: human PKK mRNA in HepaRG cells; 5-10-5 gapmers; Table 14
row,Substance,% inhibition [%]
1,546850 (eT*eA*eT*e[5mC]*eA*d[5mC]*dT*dG*dT*d[5mC]*d[5mC]*dT*dA*dT*dA*eT*e[5mC]*eA*e[5mC]*eT; antisense) [compound 546850],80
2,546851 (eA*eG*eT*eA*eT*d[5mC]*dA*d[5mC]*dT*dG*dT*d[5mC]*d[5mC]*dT*dA*eT*eA*eT*e[5mC]*eA; antisense) [compound 546851],81
3,546856 (eA*eA*e[5mC]*eT*eA*dT*dA*dA*d[5mC]*dA*dG*dT*dA*dT*d[5mC]*eA*e[5mC]*eT*eG*eT; antisense) [compound 546856],54
4,546857 (eT*eA*eT*eA*eA*d[5mC]*dT*dA*dT*dA*dA*d[5mC]*dA*dG*dT*eA*eT*e[5mC]*eA*e[5mC]; antisense) [compound 546857],7
5,546858 (e[5mC]*eT*eA*eT*eA*dA*d[5mC]*dT*dA*dT*dA*dA*d[5mC]*dA*dG*eT*eA*eT*e[5mC]*eA; antisense) [compound 546858],21
6,546859 (eT*eT*eT*e[5mC]*e[5mC]*dT*dA*dT*dA*dA*d[5mC]*dT*dA*dT*dA*eA*e[5mC]*eA*eG*eT; antisense) [compound 546859],7
7,546860 (e[5mC]*eT*eA*eG*eT*dT*dT*d[5mC]*d[5mC]*dT*dA*dT*dA*dA*d[5mC]*eT*eA*eT*eA*eA; antisense) [compound 546860],36
8,546861 (eT*eA*eA*e[5mC]*eA*dA*dT*dA*dT*d[5mC]*dA*d[5mC]*dT*dG*dT*e[5mC]*e[5mC]*eT*eA*eT; antisense) [compound 546861],68
9,546862 (eA*eA*e[5mC]*eT*eA*dT*dA*dA*d[5mC]*dA*dA*dT*dA*dT*d[5mC]*eA*e[5mC]*eT*eG*eT; antisense) [compound 546862],0
10,546863 (eT*eA*eA*e[5mC]*eT*dA*dT*dA*dA*d[5mC]*dA*dA*dT*dA*dT*e[5mC]*eA*e[5mC]*eT*eG; antisense) [compound 546863],21
11,546864 (eA*eT*eA*eA*e[5mC]*dT*dA*dT*dA*dA*d[5mC]*dA*dA*dT*dA*eT*e[5mC]*eA*e[5mC]*eT; antisense) [compound 546864],0
12,546865 (eT*eA*eT*eA*eA*d[5mC]*dT*dA*dT*dA*dA*d[5mC]*dA*dA*dT*eA*eT*e[5mC]*eA*e[5mC]; antisense) [compound 546865],0
13,546866 (eG*eT*eT*eT*e[5mC]*d[5mC]*dT*dA*dT*dA*dA*d[5mC]*dT*dA*dT*eA*eA*e[5mC]*eA*eA; antisense) [compound 546866],35
14,546867 (eA*e[5mC]*e[5mC]*eT*eA*dT*dA*dA*d[5mC]*dT*d[5mC]*dT*dA*dA*d[5mC]*eA*eG*eT*eA*eT; antisense) [compound 546867],40
15,546868 (eT*eA*e[5mC]*e[5mC]*eT*dA*dT*dA*dA*d[5mC]*dT*d[5mC]*dT*dA*dA*e[5mC]*eA*eG*eT*eA; antisense) [compound 546868],51
16,546869 (eT*eG*eT*eA*e[5mC]*d[5mC]*dT*dA*dT*dA*dA*d[5mC]*dT*d[5mC]*dT*eA*eA*e[5mC]*eA*eG; antisense) [compound 546869],53
17,546871 (eA*e[5mC]*eT*eG*eT*dA*d[5mC]*d[5mC]*dT*dA*dT*dA*dA*d[5mC]*dT*e[5mC]*eT*eA*eA*e[5mC]; antisense) [compound 546871],73
18,546873 (e[5mC]*eA*eA*eT*eA*dT*d[5mC]*dA*d[5mC]*dT*dG*dT*dA*d[5mC]*d[5mC]*eT*eA*eT*eA*eA; antisense) [compound 546873],34
19,546874 (eA*eT*eA*eA*e[5mC]*dA*dA*dT*dA*dT*d[5mC]*dA*d[5mC]*dT*dG*eT*eA*e[5mC]*e[5mC]*eT; antisense) [compound 546874],68
20,546875 (eA*e[5mC]*eT*eA*eT*dA*dA*d[5mC]*dA*dA*dT*dA*dT*d[5mC]*dA*e[5mC]*eT*eG*eT*eA; antisense) [compound 546875],33
21,546878 (e[5mC]*e[5mC]*eT*eA*eT*dA*dA*d[5mC]*dA*dG*dT*dA*dT*d[5mC]*dA*e[5mC]*eT*eG*eT*e[5mC]; antisense) [compound 546878],81
22,546879 (eT*eT*eT*e[5mC]*e[5mC]*dT*dA*dT*dA*dA*d[5mC]*dA*dG*dT*dA*eT*e[5mC]*eA*e[5mC]*eT; antisense) [compound 546879],42
23,546880 (eG*eT*eT*eT*e[5mC]*d[5mC]*dT*dA*dT*dA*dA*d[5mC]*dA*dG*dT*eA*eT*e[5mC]*eA*e[5mC]; antisense) [compound 546880],41
24,546881 (eA*eG*eT*eT*eT*d[5mC]*d[5mC]*dT*dA*dT*dA*dA*d[5mC]*dA*dG*eT*eA*eT*e[5mC]*eA; antisense) [compound 546881],49
25,546882 (eT*eA*eG*eT*eT*dT*d[5mC]*d[5mC]*dT*dA*dT*dA*dA*d[5mC]*dA*eG*eT*eA*eT*e[5mC]; antisense) [compound 546882],24
26,546883 (e[5mC]*eT*eA*eG*eT*dT*dT*d[5mC]*d[5mC]*dT*dA*dT*dA*dA*d[5mC]*eA*eG*eT*eA*eT; antisense) [compound 546883],19
27,546884 (eA*e[5mC]*eT*eA*eG*dT*dT*dT*d[5mC]*d[5mC]*dT*dA*dT*dA*dA*e[5mC]*eA*eG*eT*eA; antisense) [compound 546884],6

# Same assay, conditions: human PKK mRNA, HepaRG cells; 5-10-5 motif oligonucleotides targeting SEQ ID NO: 1 and 10
row,Substance,% inhibition [%]
1,546885 (eT*eA*eT*eG*eT*d[5mC]*dA*d[5mC]*dT*dG*dT*dA*d[5mC]*d[5mC]*dT*eA*eT*eA*eA*e[5mC]; antisense) [compound 546885],46
2,546886 (e[5mC]*eT*eA*eT*eG*dT*d[5mC]*dA*d[5mC]*dT*dG*dT*dA*d[5mC]*d[5mC]*eT*eA*eT*eA*eA; antisense) [compound 546886],80
3,546887 (e[5mC]*e[5mC]*eT*eA*eT*dG*dT*d[5mC]*dA*d[5mC]*dT*dG*dT*dA*d[5mC]*e[5mC]*eT*eA*eT*eA; antisense) [compound 546887],82
4,546888 (eT*e[5mC]*e[5mC]*eT*eA*dT*dG*dT*d[5mC]*dA*d[5mC]*dT*dG*dT*dA*e[5mC]*e[5mC]*eT*eA*eT; antisense) [compound 546888],78
5,546890 (eT*eG*eT*e[5mC]*e[5mC]*dT*dA*dT*dG*dT*d[5mC]*dA*d[5mC]*dT*dG*eT*eA*e[5mC]*e[5mC]*eT; antisense) [compound 546890],78
6,546891 (e[5mC]*eT*eG*eT*e[5mC]*d[5mC]*dT*dA*dT*dG*dT*d[5mC]*dA*d[5mC]*dT*eG*eT*eA*e[5mC]*e[5mC]; antisense) [compound 546891],81
7,546892 (eA*e[5mC]*eT*eG*eT*d[5mC]*d[5mC]*dT*dA*dT*dG*dT*d[5mC]*dA*d[5mC]*eT*eG*eT*eA*e[5mC]; antisense) [compound 546892],82
